Measured values taken from patent US20240335563A1, “EPIGENETIC MODULATORS FOR TISSUE REPROGRAMMING” (THE TRUSTEES OF INDIANA UNIVERSITY, priority 2021, published 2024).

Tests used:
[1] = test system: intermediate iPSCs; details: cited from earlier work; for SCR efficiency: HDAC inhibition
[2] = test system: ESC-specific genes; details: alone, without transduction of the reprogramming factors; cited from earlier work
[3] = test system: streptozotocin-induced diabetic C57BL/6 male mice; experiment: Blood glucose in streptozotocin-induced diabetic mice after TNT-PMGF, with intradermal epigenetic modulator; type: in vivo; details: p<0.001 vs. week 4
[4] = test system: neural precursor cells and MEFs; details: G9a inhibition, H3K9 hypomethylation; cited from earlier work
[5] = test system: mouse fibroblasts; details: LSD1 inhibition; cited from earlier work

For `CC(/C=C/C(=O)NO)=C\[C@@H](C)C(=O)c1ccc(N(C)C)cc1` [trichostatin A], the SCR efficiency [1] is listed as “improves SCR efficiency” and the “upregulation of ESC-specific genes” value [2] is listed as “sufficient to upregulate ESC-specific genes”.

For `Nc1ncn([C@@H]2O[C@H](CO)[C@@H](O)[C@H]2O)c(=O)n1` [5-Azacytidine], the “reprogramming of intermediate iPSCs” value ([1]; DNMT inhibition during reprogramming) is given as “allows intermediate iPSCs to be fully reprogrammed”, the average blood glucose ([3]; week 5, after 5-Azacytidine 10 mg/Kg intradermally at TNT sites thrice in week 4, TNT PMGF non-responders) is given as about 275 mg/dL and the blood glucose ([3]; week 8, after subsequent 5-Azacytidine injection at week 7) is given as about 170 mg/dL. The blood glucose ([3]; week 9, after subsequent 5-Azacytidine injection at week 7) was 169 mg/dL.

In the case of `CCCC(CCC)C(=O)O` [valproic acid], the SCR efficiency [1] is listed as “improves SCR efficiency”.

In the case of `COc1cc2nc(N3CCCN(C)CC3)nc(NC3CCN(Cc4ccccc4)CC3)c2cc1OC` [BIX-01294], the “reprogramming of neural precursor cells and MEFs into iPSCs” value [4] is listed as “enhances the reprogramming”.

For `N[C@@H]1C[C@H]1c1ccccc1` (racemic) [Parnate, tranylcypromine], the “reprogramming efficiency of mouse fibroblasts” value [5] is listed as “increases the reprogramming efficiency”.
